From patent US20050080142A1 (priority 2003, published 2005) come the findings set out here.

Common to all, as to assay type: cell-based
Assay [1] concerns Tetrahymena (Trophozoite).
A further assay relates to Acanthamoeba (Cyst).
The subject of assay [2] is Acanthamoeba (Trophozoite).

`CCCCCCCCCCCCNC(=N)N` [Dodecylguanidine]: in assay [1], the “Minimal Lethal Concentration, Tetrahymena (Trophozoite)” value came out at 10 µg/mL. Also, in the assay with Acanthamoeba (Cyst), the “Minimal Lethal Concentration, Acanthamoeba (Cyst)” value is 40 µg/mL. Moreover, the “Minimal Lethal Concentration, Acanthamoeba (Trophozoite)” value in assay [2] is 25 µg/mL.
For the compound `N=C(N)N` [Guanidine], in assay [1], the “Minimal Lethal Concentration, Tetrahymena (Trophozoite)” value came to 400 µg/mL. Besides, the “Minimal Lethal Concentration, Acanthamoeba (Cyst)” value in the assay with Acanthamoeba (Cyst) was found to be 500 µg/mL. The “Minimal Lethal Concentration, Acanthamoeba (Trophozoite)” value in assay [2] came out at 500 µg/mL.
In the case of `[H]/N=C(\N/C(=N/[H])NCCCCCCNC(=N)NC(=N)Nc1ccc(Cl)cc1)Nc1ccc(Cl)cc1` [Chlorhexidine], in assay [1], the “Minimal Lethal Concentration, Tetrahymena (Trophozoite)” value was found to be 15 µg/mL. Besides, in the assay on Acanthamoeba (Cyst), the “Minimal Lethal Concentration, Acanthamoeba (Cyst)” value is 50 µg/mL. Also, the “Minimal Lethal Concentration, Acanthamoeba (Trophozoite)” value in assay [2] came to 10 µg/mL.
